Counter-ions that a name gives are not always drawn. Like-named read-outs stand apart in the source and are kept apart here.
Biological target: T1, ENaC (Epithelial Sodium Channel) (Mus musculus, UniProt Q61180+Q9WU38+Q9WU39)
T1 construct: Mouse kidney M−1 cells were cultivated in DMEM; endogenous in cells; host or cells: Mouse kidney M-1 cells, cultivated with dexamethasone on transwell filters
T1 sequence (Q61180 1-699): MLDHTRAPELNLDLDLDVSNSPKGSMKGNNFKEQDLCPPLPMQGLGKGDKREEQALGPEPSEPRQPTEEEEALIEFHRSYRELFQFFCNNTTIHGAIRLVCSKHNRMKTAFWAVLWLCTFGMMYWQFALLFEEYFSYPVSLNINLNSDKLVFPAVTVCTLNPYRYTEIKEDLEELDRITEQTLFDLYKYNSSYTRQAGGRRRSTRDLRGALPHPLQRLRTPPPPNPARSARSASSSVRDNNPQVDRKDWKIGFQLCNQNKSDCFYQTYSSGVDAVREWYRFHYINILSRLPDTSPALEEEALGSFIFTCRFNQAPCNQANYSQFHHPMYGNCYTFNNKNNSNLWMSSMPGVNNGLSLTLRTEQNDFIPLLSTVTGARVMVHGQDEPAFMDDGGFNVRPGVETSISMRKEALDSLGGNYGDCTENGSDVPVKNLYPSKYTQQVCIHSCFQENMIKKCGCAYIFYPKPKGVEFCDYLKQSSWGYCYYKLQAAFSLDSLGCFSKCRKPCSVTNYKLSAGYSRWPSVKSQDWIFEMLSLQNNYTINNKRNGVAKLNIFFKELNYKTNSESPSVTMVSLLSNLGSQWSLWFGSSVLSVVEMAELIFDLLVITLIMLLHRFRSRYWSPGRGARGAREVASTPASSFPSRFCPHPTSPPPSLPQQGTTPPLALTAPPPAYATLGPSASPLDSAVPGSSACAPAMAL
T1 sequence (Q9WU38 1-638): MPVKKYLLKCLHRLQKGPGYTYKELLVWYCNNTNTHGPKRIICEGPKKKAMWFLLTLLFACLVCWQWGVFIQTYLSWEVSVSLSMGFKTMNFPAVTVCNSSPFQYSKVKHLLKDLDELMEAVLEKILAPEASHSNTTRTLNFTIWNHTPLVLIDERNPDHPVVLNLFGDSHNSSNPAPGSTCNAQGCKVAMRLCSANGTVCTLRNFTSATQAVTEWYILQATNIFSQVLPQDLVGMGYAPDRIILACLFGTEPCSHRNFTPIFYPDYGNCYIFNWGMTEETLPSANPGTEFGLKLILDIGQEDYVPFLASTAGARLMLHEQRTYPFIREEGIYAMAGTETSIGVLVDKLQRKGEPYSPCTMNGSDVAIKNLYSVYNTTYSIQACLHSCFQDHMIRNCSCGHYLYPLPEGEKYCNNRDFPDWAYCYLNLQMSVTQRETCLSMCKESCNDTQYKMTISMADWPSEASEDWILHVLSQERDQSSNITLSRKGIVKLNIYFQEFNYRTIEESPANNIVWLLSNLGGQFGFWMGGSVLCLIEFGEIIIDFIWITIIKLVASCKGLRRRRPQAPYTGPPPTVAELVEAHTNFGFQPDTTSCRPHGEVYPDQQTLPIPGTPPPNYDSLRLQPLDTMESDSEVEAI
T1 sequence (Q9WU39 1-655): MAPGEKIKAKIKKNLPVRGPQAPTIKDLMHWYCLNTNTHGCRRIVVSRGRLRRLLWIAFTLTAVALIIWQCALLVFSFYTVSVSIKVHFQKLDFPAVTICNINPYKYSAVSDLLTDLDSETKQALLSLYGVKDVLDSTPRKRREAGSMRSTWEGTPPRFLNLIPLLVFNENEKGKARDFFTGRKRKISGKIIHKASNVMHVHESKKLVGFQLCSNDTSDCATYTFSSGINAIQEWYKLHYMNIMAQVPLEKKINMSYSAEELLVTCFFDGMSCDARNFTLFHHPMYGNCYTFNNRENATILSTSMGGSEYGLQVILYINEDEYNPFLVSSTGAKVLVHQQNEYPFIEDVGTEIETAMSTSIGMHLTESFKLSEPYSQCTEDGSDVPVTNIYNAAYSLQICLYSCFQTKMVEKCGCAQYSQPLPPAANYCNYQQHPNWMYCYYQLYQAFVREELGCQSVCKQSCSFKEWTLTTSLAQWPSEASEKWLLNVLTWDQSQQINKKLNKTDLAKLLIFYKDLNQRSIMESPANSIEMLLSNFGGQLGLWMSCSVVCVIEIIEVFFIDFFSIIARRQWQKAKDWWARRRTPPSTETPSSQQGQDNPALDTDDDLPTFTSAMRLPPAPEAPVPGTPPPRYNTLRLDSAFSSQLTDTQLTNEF
Assay: Ussing Chamber assay (short circuit current, amiloride sensitive I_SC)
Assay type: cell-based
Procedure: The IC50 values of the example compounds given above were determined in the Ussing Chamber assay.
Ussing Chamber: Mouse kidney M−1 cells were cultivated in DMEM containing 5% FCS and 5 μM dexamethasone for 10 to 12 days on polyester transwell filters. Filters were inserted into a teflon-coated well-plate which fit into the ussing chamber system. Prior to measurement the medium of M−1 cells was replaced with Caco-2 transport buffer (Invitrogen, Germany). During measurements, the Ussing chamber temperature was kept at 37° C. Short circuit currents (I_sc) were measured in the voltage-clamp mode with the software package Lab View for data acquisition and analysis. The transepithelial electrical resistance (TEER) was determined by the application of voltage steps of ±5 mV every 5 sec. Compounds were administered at a final concentration of 3 μM or at increasing concentrations (1-3-10 μM) to the apical solution. At the end of each experiment the amiloride sensitive I_SC was measured by adding 3 μM amiloride to the apical compartment. Results are expressed as inhibition in percent of the amiloride effect or as IC50.

[1] = Ussing chamber, mouse kidney M-1 cells, short circuit current, compound added to the apical solution, read-out: IC50
[2] = Ussing chamber, mouse kidney M-1 cells, short circuit current, unit inferred, read-out: IC50
[3] = Ussing chamber, mouse kidney M-1 cells, short circuit current, value printed in the example text with μM, read-out: IC50

SMILES: COC(=O)CCNC(=O)c1ccc(CCC[N+]2(CCCc3ccc(OC)cc3)CCCC(NC(=O)c3nc(Cl)c(N)nc3N)C2)cc1 (stereo not drawn) [Example 5.8]
- IC50 [1]: 0.024 µM

SMILES: COc1ccc(CCC[N+]2(CCCc3ccc(C(=O)NCCC(=O)O)cc3)CCCC(NC(=O)c3nc(Cl)c(N)nc3N)C2)cc1 (stereo not drawn) [Example 5.10, 1-{3-[4-(Carboxyethyl-carbamoyl)-phenyl]-propyl}-3-[(3,5-diamino-6-chloro-pyrazine-2-carbonyl)-amino]-1-[3-(4-methoxy-phenyl)-propyl]-piperidinium chloride]
- IC50 [2]: 0.15 µM

SMILES: COC(=O)COc1ccc(CCC[N+]2(CCCc3ccc(OCC(=O)OC)cc3)CCCC(NC(=O)c3nc(Cl)c(N)nc3N)C2)cc1 (stereo not drawn) [Example 6, 3-[(3,5-Diamino-6-chloro-pyrazine-2-carbonyl)-amino]-1,1-bis-[3-(4-methoxycarbonylmethoxy-phenyl)-propyl]-piperidinium trifluoroacetate]
- IC50 [3]: 0.02 µM

SMILES: Nc1nc(N)c(C(=O)NC2CCC[N+](CCCc3ccc(OCC(=O)O)cc3)(CCCc3ccc(OCC(=O)O)cc3)C2)nc1Cl (stereo not drawn) [Example 6.1, 1,1-Bis-[3-(4-carboxymethoxy-phenyl)-propyl]-3-[(3,5-diamino-6-chloro-pyrazine-2-carbonyl)-amino]-piperidinium chloride]
- IC50 [3]: > 1 µM

SMILES: Nc1nc(N)c(C(=O)NC2CCC[N+](CCCc3ccc(OCC(=O)NCCOCCOCCO)cc3)(CCCc3ccc(OCC(=O)NCCOCCOCCO)cc3)C2)nc1Cl (stereo not drawn) [Example 6.3, 3-[(3,5-Diamino-6-chloro-pyrazine-2-carbonyl)-amino]-1,1-bis-{3-[4-({2-[2-(2-hydroxyethoxy)-ethoxy]-ethylcarbamoyl}-methoxy)-phenyl]-propyl}-piperidinium trifluoroacetate]
- IC50 [2]: 0.103 µM

SMILES: NC(=O)COc1ccc(CCC[N+]2(CCCc3ccc(OCC(N)=O)cc3)CCCC(NC(=O)c3nc(Cl)c(N)nc3N)C2)cc1 (stereo not drawn) [Example 6.4]
- IC50 [1]: 0.072 µM

SMILES: CN(C)CCNC(=O)COc1ccc(CCC[N+]2(CCCc3ccc(OCC(=O)NCCN(C)C)cc3)CCCC(NC(=O)c3nc(Cl)c(N)nc3N)C2)cc1 (stereo not drawn) [Example 6.5]
- IC50 [1]: 0.05 µM

SMILES: C[N+](C)(C)CCNC(=O)COc1ccc(CCC[N+]2(CCCc3ccc(OCC(=O)NCC[N+](C)(C)C)cc3)CCCC(NC(=O)c3nc(Cl)c(N)nc3N)C2)cc1 (stereo not drawn) [Example 6.6]
- IC50 [1]: 0.068 µM

SMILES: CN(C)CCCNC(=O)COc1ccc(CCC[N+]2(CCCc3ccc(OCC(=O)NCCCN(C)C)cc3)CCCC(NC(=O)c3nc(Cl)c(N)nc3N)C2)cc1 (stereo not drawn) [Example 6.7]
- IC50 [1]: 0.031 µM

SMILES: CN(C)CCCN(C)C(=O)COc1ccc(CCC[N+]2(CCCc3ccc(OCC(=O)N(C)CCCN(C)C)cc3)CCCC(NC(=O)c3nc(Cl)c(N)nc3N)C2)cc1 (stereo not drawn) [Example 6.8]
- IC50 [1]: 0.041 µM

SMILES: CN(C)CCN(C)C(=O)COc1ccc(CCC[N+]2(CCCc3ccc(OCC(=O)N(C)CCN(C)C)cc3)CCCC(NC(=O)c3nc(Cl)c(N)nc3N)C2)cc1 (stereo not drawn) [Example 6.9]
- IC50 [1]: 0.065 µM

SMILES: C[N+](C)(C)CCNC(=O)COc1ccc(CCC[N+]2(CCCc3ccc(OCC(=O)NCC[N+](C)(C)C)cc3)CCC[C@H](NC(=O)c3nc(Cl)c(N)nc3N)C2)cc1 [Example 6.10]
- IC50 [1]: 0.068 µM

SMILES: COC(=O)COc1ccc(CCC[N+]2(CCCc3ccc(OCC(=O)OC)cc3)CCC[C@H](NC(=O)c3nc(Cl)c(N)nc3N)C2)cc1 [Example 6.11]
- IC50 [1]: 0.045 µM

SMILES: CN(C)C(=O)COc1ccc(CCC[N+]2(CCCc3ccc(OCC(=O)N(C)C)cc3)CCC[C@H](NC(=O)c3nc(Cl)c(N)nc3N)C2)cc1 [Example 6.12]
- IC50 [1]: 0.134 µM

SMILES: CN1CCC(NC(=O)COc2ccc(CCC[N+]3(CCCc4ccc(OCC(=O)NC5CCN(C)CC5)cc4)CCC[C@H](NC(=O)c4nc(Cl)c(N)nc4N)C3)cc2)CC1 [Example 6.13]
- IC50 [1]: 0.015 µM

SMILES: CN(C)CCNC(=O)COc1ccc(CCC[N+]2(CCCc3ccc(OCC(=O)NCCN(C)C)cc3)CCC[C@H](NC(=O)c3nc(Cl)c(N)nc3N)C2)cc1 [Example 6.14]
- IC50 [1]: 0.045 µM

SMILES: Nc1nc(N)c(C(=O)NC2CCC[N+](CCCc3ccc(O)cc3)(CCCc3ccc(O)cc3)C2)nc1Cl (stereo not drawn) [Example 6.15, 3-[(3,5-Diamino-6-chloro-pyrazine-2-carbonyl)-amino]-1,1-bis-[3-(4-hydroxy-phenyl)propyl]-piperidinium trifluoroacetate]
- IC50: 0.013 µM

SMILES: COCCN(C)C(=O)COc1ccc(CCC[N+]2(CCCc3ccc(OCC(=O)N(C)CCOC)cc3)CCC[C@H](NC(=O)c3nc(Cl)c(N)nc3N)C2)cc1 [Example 6.16]
- IC50 [1]: 0.042 µM

SMILES: CN(Cc1ccncc1)C(=O)COc1ccc(CCC[N+]2(CCCc3ccc(OCC(=O)N(C)Cc4ccncc4)cc3)CCC[C@H](NC(=O)c3nc(Cl)c(N)nc3N)C2)cc1 [Example 6.17]
- IC50 [1]: 0.021 µM

SMILES: Nc1nc(N)c(C(=O)N[C@H]2CCC[N+](CCCc3ccc(OCC(=O)NCCCO)cc3)(CCCc3ccc(OCC(=O)NCCCO)cc3)C2)nc1Cl [Example 6.18]
- IC50 [1]: 0.013 µM

SMILES: Nc1nc(N)c(C(=O)N[C@H]2CCC[N+](CCCc3ccc(OCC(=O)NCC(O)CO)cc3)(CCCc3ccc(OCC(=O)NCC(O)CO)cc3)C2)nc1Cl (stereo partly drawn) [Example 6.19]
- IC50 [1]: 0.03 µM

SMILES: Nc1nc(N)c(C(=O)N[C@H]2CCC[N+](CCCc3ccc(OCC(=O)NC(CO)CO)cc3)(CCCc3ccc(OCC(=O)NC(CO)CO)cc3)C2)nc1Cl [Example 6.20]
- IC50 [1]: 0.046 µM

SMILES: COCCN(CCOC)C(=O)COc1ccc(CCC[N+]2(CCCc3ccc(OCC(=O)N(CCOC)CCOC)cc3)CCC[C@H](NC(=O)c3nc(Cl)c(N)nc3N)C2)cc1 [Example 6.21]
- IC50 [1]: 0.023 µM

SMILES: CN(Cc1ccccn1)C(=O)COc1ccc(CCC[N+]2(CCCc3ccc(OCC(=O)N(C)Cc4ccccn4)cc3)CCC[C@H](NC(=O)c3nc(Cl)c(N)nc3N)C2)cc1 [Example 6.22]
- IC50 [1]: 0.018 µM

SMILES: Nc1nc(N)c(C(=O)N[C@H]2CCC[N+](CCCc3ccc(OCC(=O)NC4CCS(=O)(=O)C4)cc3)(CCCc3ccc(OCC(=O)NC4CCS(=O)(=O)C4)cc3)C2)nc1Cl (stereo partly drawn) [Example 6.23]
- IC50 [1]: 0.035 µM

SMILES: Nc1nc(N)c(C(=O)N[C@H]2CCC[N+](CCCc3ccc(OCC(=O)N4CCS(=O)(=O)CC4)cc3)(CCCc3ccc(OCC(=O)N4CCS(=O)(=O)CC4)cc3)C2)nc1Cl [Example 6.24]
- IC50 [1]: 0.047 µM

SMILES: Nc1nc(N)c(C(=O)N[C@H]2CCC[N+](CCCc3ccc(OCC(=O)NCCCCO)cc3)(CCCc3ccc(OCC(=O)NCCCCO)cc3)C2)nc1Cl [Example 6.25]
- IC50 [1]: 0.014 µM
